The values that follow come from paper PMC5913971, “A Novel Piperazine-Based Drug Lead for Cryptosporidiosis from the Medicines for Malaria Venture Open-Access Malaria Box” (Antimicrobial Agents and Chemotherapy, 2018).

pEC50: −log10 of the molar value. Like-named read-outs stand apart in the source and are kept apart here.

Assay [1] deals with C. parvum Iowa isolate. In words: Immunofluorescence assay for C. parvum growth inhibition in HCT-8 cells. It counts as cell-based, Cryptosporidium parvum. To be noted: read-out: C. parvum EC50 (95% CI). On the procedure: Inhibition of C. parvum growth was measured as described previously ([20]). Oocysts were excysted by treatment with 10 mM hydrochloric acid (10 min at 37°C), followed by exposure to 2 mM sodium taurocholate (Sigma-Aldrich) in PBS for 10 min at 16°C. Excysted oocysts were then added to >95% confluent HCT-8 cell monolayers in 384-well plates at a concentration of 5,500 Iowa isolate oocysts per well. For C. parvum field isolates, the inoculum required to yield an infection level similar to that produced by 5,500 Iowa isolate oocysts per well was determined and was used for subsequent assays of parasite inhibition. Compounds were added just before or 3 h after infection, and assay plates were incubated for 48 h postinfection at 37°C under 5% CO2. Wells were then washed three times with PBS containing 111 mM D-galactose, fixed with 4% paraformaldehyde in PBS for 15 min at room temperature, permeabilized with 0.25% Triton X-100 for 10 min at 37°C, washed three times with PBS with 0.1% Tween 20, and blocked with 4% bovine serum albumin (BSA) in PBS for 2 h at 37°C or 4°C overnight. Parasitophorous vacuoles were stained with 1.33 μg/ml of fluorescein-labeled Vicia villosa lectin (Vector Laboratories) diluted in 1% BSA in PBS with 0.1% Tween 20 for 1 h at 37°C, followed by the addition of Hoechst 33258 (AnaSpec) at a final concentration of 0.09 mM diluted in water for another 15 min at 37°C. Wells were then washed five times with PBS containing 0.1% Tween 20. A Nikon Eclipse TE2000 epifluorescence microscope with an automated stage was programmed using NIS-Elements Advanced Research software (Nikon, USA) to focus on the center of each well and take a 3-by-3 composite image using an EXi Blue fluorescence microscopy camera (QImaging, Canada) with a 20× objective (numerical aperture, 0.45). Nucleus and parasite images were exported separately as .tif files and were analyzed using macros developed on the ImageJ platform (National Institutes of Health) ([20]). The only modification from the published macro used to count parasites was that the lower size threshold for parasites was decreased from 16.5 to 4 pixels (1 pixel = 0.65 μm). Graphs were plotted, and half-maximal effective concentration (EC50) and 90% effective concentration (EC90) values were calculated using GraphPad Prism software, version 6.01. For every C. parvum field isolate experiment, a dose-response experiment against the C. parvum Iowa isolate was performed simultaneously as a reference.

The subject of assay [2] is C. parvum Iowa isolate. In words: NOD SCID gamma (NSG) mouse model of chronic cryptosporidiosis, fecal qPCR. The format is in vivo, NOD SCID gamma mice. The method, then: All NOD SCID gamma mouse studies were performed in compliance with animal care guidelines and were approved by the University of Vermont Institutional Animal Care and Use Committee. NOD SCID gamma mice with normal flora (NOD.Cg-Prkdc^scid Il2rg^tm1Wjl/SzJ) ([38]) were purchased from The Jackson Laboratory (Bar Harbor, ME, USA) and were housed for at least a week for acclimatization. At the age of 4 to 5 weeks, mice were infected with 10^5 C. parvum Iowa isolate oocysts. Fecal oocyst shedding is detected 6 days after infection using a quantitative PCR (qPCR assay), so treatment was started on day 7 after infection. Mice (4 per experimental group) were treated either orally (p.o.) with MMV665917 at 30 or 60 mg/kg BID, intraperitoneally (i.p.) with MMV665917 at 60 mg/kg BID, or p.o. with 1,000 mg/kg paromomycin BID. MMV665917 was suspended in DMSO, sonicated three times, for 30 s each time, to obtain a fine suspension, aliquoted, and stored at −80°C for <10 days. On the day of treatment, aliquots of MMV665917 diluted in DMSO were thawed, mixed well using a vortexer, diluted with 1% HPMC, sonicated as before (three times for 30 s each time), mixed well, and given to mice either p.o. or by i.p. injection. A final concentration of 5% DMSO was used in 100 μl of 1% HPMC per dose. For the additional Malaria Box compounds and compound variants tested, the doses were prepared in the same way, and the specific dosages tested are given in Table S3 in the supplemental material. Mice were treated for either 4 or 7 days, allowed to recover for a week, and then sacrificed. Oocyst shedding in feces was monitored throughout by qPCR, including time points while on treatment and while monitoring for relapsed infection following completion of treatment in Fig. 2A.

The test system of assay [3] is C. parvum. In words: Parasite persistence (time-kill) assay in HCT-8 cells. It counts as cell-based, Cryptosporidium parvum. On the procedure:
Excysted C. parvum oocysts were added to >90% confluent HCT-8 cells in 384-well plates. […] At ∼24 h (i.e., the time of compound addition) and at various time intervals thereafter, parasites were washed, fixed, permeabilized, stained, and imaged as for the C. parvum growth assay. For the extended-compound-exposure experiments, the medium and compound were replaced every 3 days. A separate 384-well plate was used for each time interval. Parasite numbers were normalized to host cell nucleus numbers and are expressed as the percentage of parasites per host cell nucleus. In order to fit parasite decay curves, the effect of drugs was isolated from expected changes in parasite numbers over time by expressing the number of parasites as the percentage of the number of parasites with the control, dimethyl sulfoxide (DMSO), for each time point. Exponential decay curves were fit using GraphPad Prism software, version 6.01, and curve validity was assessed using the replicates test.

The mark [4] stands for this setting: Cryptosporidium parvum, HCT-8, Table S1, confirmed screening hits.
The mark [5] stands for this setting: dose 50 mg/kg, interval 12 h, duration 4 days.
The mark [6] stands for this setting: dose 100 mg/kg, interval 24 h, duration 7 days.
Setting [7] is: Cryptosporidium parvum, HCT-8, Table S3, SAR of MMV665917.

Regarding `CN(C)c1ccc(C(O)(c2ccc(N(C)C)cc2)c2ccc(N(C)C)cc2)cc1` [MMV665941, CN(C)c1ccc(cc1)C(O)(c2ccc(cc2)N(C)C)c3ccc(cc3)N(C)C], the negative-log EC50 (pEC50) in assay [1] (setting [4]) was 6.08. In addition, the NSG efficacy entry in assay [2] (setting [5]) is listed as “No”.

Turning to `c1ccc(CNc2nc(Nc3ccccc3)nc3ccccc23)cc1` [MMV006169, C(Nc1nc(Nc2ccccc2)nc3ccccc13)c4ccccc4], in assay [1] (Table S1, confirmed screening hits), the pEC50 is 5.82. In addition, the NSG efficacy result in assay [2] (setting [5]) is on record as “No”.

Consider `COc1ccc(C(=O)Nc2cc(C)nn2-c2nc3c(cnn3-c3cccc(C)c3)c(=O)[nH]2)c(OC)c1` [MMV403679 v1, c31c(cnn1-c2cc(ccc2)C)C(=O)NC(=N3)n4c(cc(n4)C)NC(=O)c5c(cc(cc5)OC)OC], for which, in assay [2] (setting [6]), the NSG efficacy result is “No”.

Turning to `Cc1cc(NC(=O)c2cc3ccccc3o2)n(-c2nc3c(cnn3-c3ccccc3)c(=O)[nH]2)n1` [MMV403679 v4, c31c(cnn1-c2ccccc2)C(=O)NC(=N3)n4c(cc(n4)C)NC(=O)c5oc6c(c5)cccc6], the NSG efficacy entry in assay [2] (setting [6]) is “No”.

With `COc1ccc(Nc2nc(NCc3ccccc3Cl)c3ccccc3n2)cc1Cl` [MMV006169 v3, COc1ccc(cc1Cl)Nc1nc(NCc2ccccc2Cl)c2c(n1)cccc2], the NSG efficacy entry in assay [2] (setting [5]) is listed as “No”.

As for `COc1cccc(C(=O)NC(c2ccc(C)cc2)c2cc(Cl)c3cccnc3c2O)c1` (stereo not drawn) [MMV665969, COc1cccc(c1)C(=O)NC(c2ccc(C)cc2)c3cc(Cl)c4cccnc4c3O], the pEC50 in assay [1] (setting [4]) was 7.27. Also, in assay [2] (setting [5]), the NSG efficacy entry is “No”.

As to `Oc1c(C(Nc2ccccn2)c2cccc(Oc3ccccc3)c2)ccc2cccnc12` (stereo not drawn) [MMV665814, Oc1c(ccc2cccnc12)C(Nc3ccccn3)c4cccc(Oc5ccccc5)c4], the pEC50 in assay [1] (setting [4]) is 6.23. Moreover, the NSG efficacy result in assay [2] (setting [5]) was “No”.

As to `CSc1ccccc1C(=O)Nc1nc(-c2ccccn2)cs1` [MMV001246, CSc1ccccc1C(=O)Nc2nc(cs2)c3ccccn3], the pEC50 in assay [1] (setting [4]) was 5.74. In addition, in assay [2] (setting [5]), the NSG efficacy entry was “No”.

As for `c1ccc(CNc2nc(NC3CCCC3)nc3ccccc23)cc1` [MMV006169 v2, C1CCC(C1)Nc1nc(NCc2ccccc2)c2c(n1)cccc2], the NSG efficacy result in assay [2] (setting [5]) is on record as “No”.

For the molecule `Cc1cccc(-n2ncc3c(=O)[nH]c(-n4nc(C)cc4N)nc32)c1` [MMV403679 v5, c31c(cnn1-c2cc(ccc2)C)C(=O)NC(=N3)n4c(cc(n4)C)N], the NSG efficacy result in assay [2] (setting [6]) was “No”.

Regarding `Cc1cccc(-n2ncc3c(=O)[nH]c(-n4nc(C)cc4NC(=O)C4CC4)nc32)c1` [MMV403679 v2, c31c(cnn1-c2cc(ccc2)C)C(=O)NC(=N3)n4c(cc(n4)C)NC(=O)C5CC5], the NSG efficacy entry in assay [2] (setting [6]) is listed as “No”.

Consider `O=C(Nc1nc(-c2ccccn2)cs1)c1ccccc1Br` [MMV665909, Brc1ccccc1C(=O)Nc2nc(cs2)c3ccccn3], for which the pEC50 in assay [1] (setting [4]) was 5.48. Moreover, the NSG efficacy result in assay [2] (setting [5]) is “No”.

For `Cc1cccc(-n2ncc3c(=O)[nH]c(-n4nc(C)cc4NC(=O)C4CCCC4)nc32)c1` [MMV403679 v3, c31c(cnn1-c2cc(ccc2)C)C(=O)NC(=N3)n4c(cc(n4)C)NC(=O)C5CCCC5], the NSG efficacy entry in assay [2] (setting [6]) was “No”.

Regarding `O=C(Nc1ccc(Cl)c(Cl)c1)N1CCN(CCn2cccn2)CC1` [Compound D-81, O=C(N1CCN(CCN2N=CC=C2)CC1)NC3=CC=C(Cl)C(Cl)=C3], the pEC50 in assay [1] (setting [7]) is below 4.60.

With `O=C(Cc1ccccc1Cl)N1CCN(c2ccc3nncn3n2)CC1` [Compound D-42, O=C(N1CCN(CC1)c1ccc2n(n1)cnn2)Cc1ccccc1Cl], the negative logarithm of the EC50 (pEC50) in assay [1] (setting [7]) is below 4.60.

Take `O=C(c1ccc(S(=O)(=O)N2CCCC2)cc1)N1CCN(c2ccc3nncn3n2)CC1` [Compound D-48, O=C(c1ccc(cc1)S(=O)(=O)N1CCCC1)N1CCN(CC1)c1ccc2n(n1)cnn2]: in assay [1] (setting [7]), the pEC50 was below 4.60.

For the molecule `CC(Oc1ccc(Cl)cc1Cl)C(=O)N1CCN(c2ccc3nncn3n2)CC1` [Compound D-51, Clc1ccc(c(c1)Cl)OC(C(=O)N1CCN(CC1)c1ccc2n(n1)cnn2)C], the pEC50 in assay [1] (setting [7]) is below 4.60.

For the molecule `CN1CCN(c2ccc3nnc(C(F)(F)F)n3n2)CC1` [Compound D-2, CN1CCN(CC1)c1ccc2n(n1)c(nn2)C(F)(F)F], in assay [1] (setting [7]), the negative logarithm of the EC50 (pEC50) is below 4.60.

As for `NS(=O)(=O)c1ccc(C(=O)N2CCN(c3ccc4nncn4n3)CC2)cc1` [Compound D-45, O=C(c1ccc(cc1)S(=O)(=O)N)N1CCN(CC1)c1ccc2n(n1)cnn2], in assay [1] (setting [7]), the negative logarithm of the EC50 (pEC50) is below 4.60.

Consider `Cc1nnc2ccc(N3CCN(C(=O)NCc4ccccc4)CC3)nn12` [Compound D-21, O=C(N1CCN(CC1)c1ccc2n(n1)c(C)nn2)NCc1ccccc1], for which the pEC50 in assay [1] (setting [7]) was below 4.60.

Regarding `O=C(Nc1ccc(Cl)c(Cl)c1)N1CCN(c2ccc3nncn3n2)CC1` [Compound D-28, O=C(N1CCN(CC1)c1ccc2n(n1)cnn2)Nc1ccc(c(c1)Cl)Cl], the pEC50 in assay [1] (setting [7]) is 6.26.

Take `CC(=O)Oc1ccccc1C(=O)Nc1ncc([N+](=O)[O-])s1` [nitazoxanide]: the “short-term efficacy on oocyst shedding in NSG mice” value in assay [2] (Fig. 2B, dose not given) is “did not reduce oocyst shedding”. In assay [3], the “parasiticidal or parasitistatic for C. parvum” value was “parasitistatic”. The parasite persistence result in assay [3] (highest nontoxic concentrations, added 24 h after infection) is on record as “parasites persist”.

Consider `Oc1c(CN2CCN(c3ccccc3F)CC2)cc(Br)c2cccnc12` [MMV000760, Oc1c(CN2CCN(CC2)c3ccccc3F)cc(Br)c4cccnc14], for which, in assay [1] (setting [4]), the pEC50 is 6.54.

For `O=C(Nc1cc(Cl)ccc1Cl)N1CCN(c2ccc3nncn3n2)CC1` [Compound D-32, Clc1ccc(c(c1)NC(=O)N1CCN(CC1)c1ccc2n(n1)cnn2)Cl], the pEC50 in assay [1] (setting [7]) was around 4.61.

Regarding `O=C(Nc1ccc(F)c(Cl)c1)N1CCN(c2ccc3nnc(C4CC4)n3n2)CC1` [Compound D-43, O=C(N1CCN(CC1)c1ccc2n(n1)c(nn2)C1CC1)Nc1ccc(c(c1)Cl)F], the pEC50 in assay [1] (setting [7]) is below 4.60.

In general, pEC50 refers to −log10 of the EC50, conventionally taken in molar units.
